For the experiment, the system named is A549 cells. Kind of experiment: Apoptotic cell death assay (Annexin V/PI). The format is cell-based, human. The text has this:
Supplemental Materials and Methods
Small molecule NSC14073 (BKA-073) was obtained from the Drug Synthesis and Chemistry Branch, Developmental Therapeutic Program, Division of Cancer Treatment and Diagnosis, National Cancer Institute (NCI, Bethesda, MD) (http://dtp.nci.nih.gov/RequestCompounds).
Venetoclax (ABT-199, 205807) was purchased from MedKoo Biosciences (Morrisville, NC).
Antibodies including PARP (sc-8007), Bax (sc-7480), Mcl-1 (sc-12756), cytochrome c (sc-13156) and actin (sc-47778) were purchased from Santa Cruz (Santa Cruz, CA). Bcl2 antibody (05-826) was obtained from Calbiochem (Darmstadt, Germany). Bcl-XL (ab32370), Bak (ab32371) and Bax (ab104156) antibodies were purchased from Abcam (Cambridge, MA).
Active caspase 3 (9579S) and Mcl-1 (94296S) antibodies were purchased from Cell Signaling Technology (Danvers, MA). Fluorescent Bak BH3 domain peptide (FAM-GQVGRQLAIIGDDINR) and purified Bcl-XL protein were purchased from NeoBioSciTM (Cambridge, MA). Bim BH3 peptide (AS-62278) was obtained from AnaSpec, Inc. (Fremont, CA). Purified recombinant human Bak protein (BAK1-26166TH) was purchased from Creative Biomart (Shirley, NY). Purified recombinant human Bax protein (H00000581-P01) was obtained from Novus Biologicals (Littleton, CO) and purified human Bcl-XL protein (SRP0187) was purchased from Sigma-Aldrich (St. Louis, MO). Purified human Bcl2 protein was obtained from ProteinX Lab (San Diego, CA). Purified recombinant human Mcl-1 protein (GWB-P0342D) was purchased from GenWay Biotech, Inc. (San Diego, CA). Purified recombinant human Bcl-w (824-BW-050) protein was obtained from R&D systems (Minneapolis, MN). Bis (maleimido) hexane (BMH) (22330) was purchased from Thermo Scien tific (Rockford, IL). JC -1 (ENZ-52304) was obtained from Enzo Life Sciences, Inc. (Farmingdale, NY). All other reagents used were obtained from commercial sources unless otherwise stated. […]
Apoptotic cell death assay
Apoptotic cells were detected using Annexin-V Apoptosis Detection Kit (556547, BD Biosciences, San Jose, CA) according to the manufacturer’s instructions. After treatment with BKA-073 or other agent(s) for 72h, cells were washed twice with cold 1x PBS and then resuspended in 1 x Binding Buffer at a concentration of 1 x 10^6 cells/ml. 100 μl of the solution […]
(1 x 10^5 cells) was transferred to a 5 ml culture tube, followed by the addition of 5 μl of FITC Annexin V and 5 μl propidium iodide (PI). The cells were gently vortexed and incubated for 15 min at RT (25°C) in the dark. 400 μl of 1x binding buffer was added to each tube. […]
mM DTT] in black 96-well microplates. The plate was mixed o n a shaker for 1 minute and incubated at room temperature for an additional 15 minutes. The FP values (in millipolarization units) were measured using a fluorescence microplate reader at 485/530 nm (Gemini XPS, Molecular Devices). Data analysis and inhibit ory constant (Ki) value was determined by GraphPad prism software as described.
Cloning, protein expression and purification of mouse B ak protein
The clone pMIH-mRuby2-mouse Bak (#111627) for generation of mouse Bak protein was obtained from Addgene (Watertown, MA). The mouse Bak cDNA was cloned into pET29b expression vector between BglII and XhoI sites as His tag fusions. The BL21 DE3 Escherichia coli containing plasmid was grown at 37°C in LB (Luria-Bertani) media. The protein expression was induced with IPTG (0.2 mM) at 18°C for 16 h when the density reached an OD600 of 0.6.
Bacteria were then harvested and resuspended in 30 ml buffer A (20 mM Tris, pH 8.0, 120 mM NaCl, 10% glycerol, and protease inhibitor cocktail) and lysed by sonication. The lysate was centrifuged at 14,000 rpm for 30 min. The resulting supernatant was incubated with HisPur Cobalt Resin (Thermo Scientific) at 4 °C for 2h. After washing wi th buffer A, His-tagged mouse Bak proteins was eluted with buffer B (20 mM Tris, pH 8.0, 120 mM NaCl, 300 mM imidazole, 10% glycerol with protease inhibitor). The elution peak of interest was checked by SDS -PAGE […]

This note sets out measurements from PMC8344021, “Discovery of Small Molecule Bak Activator for Lung Cancer Therapy” (Theranostics, 2021).

`COc1ccc2nc3ccccc3c(NCCNCC(C)O)c2c1` (centres unmarked) [BKA-073]: the “induction of apoptotic cell death” value (0, 0.25, 0.5, 0.75, 1.0 µM, 72h) is recorded as “in a dose-dependent manner”. For the same molecule, the “sensitivity (DBP and apoptosis)” value (A549 Bak-/- cells expressing A79E Bak, 1 µM) is “completely or partially restored sensitivity”; the “sensitivity (DBP and apoptosis)” value (A549 Bak-/- cells expressing D83E Bak, 1 µM) is given as “failed to restore sensitivity”; the “sensitivity (DBP and apoptosis)” value (A549 Bak-/- cells expressing I80E Bak, 1 µM) is listed as “completely or partially restored sensitivity”; the “sensitivity (DBP and apoptosis)” value (A549 Bak-/- cells expressing N86E Bak, 1 µM) is “failed to restore sensitivity”. The “sensitivity (DBP and apoptotic cell death)” value is, setting by setting: (A549 Bak-/- cells expressing exogenous WT Bak, 1 µM) “restored sensitivity”; (A549 Bak-/- cells expressing ΔBH3 mutant Bak, 1 µM) “failed to restore sensitivity”; (A549 Bak-/- cells transfected with vector-only, 1 µM) “resistant”; (Bak-/- A549 cells, 1μM, 16h or 72h) “significant resistance”; (Bax-/- A549 cells, 1μM, 16h or 72h) “sensitive”; (DKO A549 cells, 1μM, 16h or 72h) “significant resistance”. For the same molecule, for the setting “parental A549 cells, 1μM, 16h or 72h”, the “sensitivity (DBP and apoptotic cell death)” value was “sensitive”. Also, the apoptotic cell death is ~ 20% (Bak-/- A549 cells) and ~ 20% (DKO A549 cells).
